We go through two molecules from patent US20090298866A1, “Indole Compounds” (priority 2006, published 2009).

One assay deals with T1, human EP3 receptor (Homo sapiens, UniProt P43115).
T1 construct: expressed in transfected cells; host or cells: CHO-K1
T1 sequence (P43115 1-390): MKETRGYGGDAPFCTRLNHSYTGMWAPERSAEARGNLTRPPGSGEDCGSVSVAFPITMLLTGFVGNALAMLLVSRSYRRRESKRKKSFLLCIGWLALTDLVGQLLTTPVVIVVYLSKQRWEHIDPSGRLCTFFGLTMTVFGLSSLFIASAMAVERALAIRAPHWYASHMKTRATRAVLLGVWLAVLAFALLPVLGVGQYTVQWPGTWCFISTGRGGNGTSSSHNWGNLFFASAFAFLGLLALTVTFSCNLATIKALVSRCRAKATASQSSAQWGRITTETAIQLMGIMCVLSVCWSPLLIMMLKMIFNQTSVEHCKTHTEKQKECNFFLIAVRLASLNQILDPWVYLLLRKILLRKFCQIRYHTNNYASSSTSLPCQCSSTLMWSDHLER
The assay is described as follows: human EP3 calcium mobilisation assay. The conditions noted are these: heading: functional pKi; human EP3, CHO-K1 cells, PGE2-induced calcium mobilisation; averages of a number of experiments. It counts as cell-based. The method, then:
(§1) Briefly, the antagonist properties of compounds are assessed by their ability to inhibit the mobilisation of intracellular calcium ([Ca^2+]i) in response to activation of EP1 or EP3 receptors by the natural agonist hormone prostaglandin E2 (PGE2). Increasing concentrations of antagonist reduce the amount of calcium that a given concentration of PGE2 can mobilise. The net effect is to displace the PGE2 concentration-effect curve to higher concentrations of PGE2. The amount of calcium produced is assessed using a calcium-sensitive fluorescent dye such as Fluo-4, AM and a suitable instrument such as a Fluorimetric Imaging Plate Reader (FLIPR). Increasing amounts of [Ca^2+]i produced by receptor activation increase the amount of fluorescence produced by the dye and give rise to an increasing signal. The signal may be detected using the FLIPR instrument and the data generated may be analysed with suitable curve-fitting software.
(§2) The human EP1 or EP3 calcium mobilisation assay (hereafter referred to as ‘the calcium assay’) utilises Chinese hamster ovary-K1 (CHO-K1) cells into which a stable (pCIN; BioTechniques 20 (1996): 102-110) vector containing either EP1 or EP3 cDNA has previously been transfected. Cells are cultured in suitable flasks containing culture medium such as DMEM:F-12 supplemented with 10% v/v foetal calf serum, 2 mM L-glutamine, 0.25 mg/ml geneticin, 100 μM flurbiprofen and 10 μg/ml puromycin.
(§3) For assay, cells are harvested using a proprietary reagent that dislodges cells such as Versene. Cells are re-suspended in a suitable quantity of fresh culture media for introduction into a 384-well plate. Following incubation for 24 hours at 37° C. the culture media is replaced with a medium containing Fluo-4 and the detergent pluronic acid, and a further incubation takes place. Concentrations of compounds are then added to the plate in order to construct concentration-effect curves. This may be performed on the FLIPR in order to assess the agonist properties of the compounds. Concentrations of PGE2 are then added to the plate in order to assess the antagonist properties of the compounds.
(§4) The data so generated may be analysed by means of a computerised curve-fitting routine. The concentration of compound that elicits a half-maximal inhibition of the calcium mobilisation induced by PGE2 (pIC50) may then be estimated.

Assay [1] has as its target T2, human EP1 receptor (Homo sapiens, UniProt P34995).
T2 construct: expressed in transfected cells; host or cells: CHO-K1
T2 sequence (P34995 1-402): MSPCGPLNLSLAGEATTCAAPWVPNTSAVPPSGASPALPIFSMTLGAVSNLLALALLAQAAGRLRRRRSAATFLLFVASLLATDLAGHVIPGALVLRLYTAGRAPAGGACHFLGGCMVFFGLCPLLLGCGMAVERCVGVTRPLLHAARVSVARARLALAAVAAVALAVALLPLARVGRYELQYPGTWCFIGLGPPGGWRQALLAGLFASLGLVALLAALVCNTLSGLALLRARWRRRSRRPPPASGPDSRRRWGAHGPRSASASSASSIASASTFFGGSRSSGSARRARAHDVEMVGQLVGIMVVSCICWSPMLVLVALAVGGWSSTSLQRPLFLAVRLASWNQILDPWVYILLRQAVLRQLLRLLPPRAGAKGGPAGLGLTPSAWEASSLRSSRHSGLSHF
The assay is described as follows: human EP1 calcium mobilisation assay. It counts as cell-based. Particulars: human EP1, CHO-K1 cells, PGE2-induced calcium mobilisation; averages of a number of experiments; read-out: functional pKi (converted). On the procedure: as §1, §2, §3, §4

Assay [2] deals with T2, human EP1 receptor. The experiment in a line: Binding assay for the human prostanoid EP1 receptor (competition with [3H]-PGE2). The conditions noted are these: binding to human EP1 receptor, CHO-K1 membranes, [3H]-PGE2 3 nM; averages of a number of experiments. On the procedure:
Competition assay using [^3H]-PGE2.
Compound potencies are determined using a radioligand binding assay. In this assay compound potencies are determined from their ability to compete with tritiated prostaglandin E2 ([^3H]-PGE2) for binding to the human EP1 receptor. This assay utilises Chinese hamster ovary-K1 (CHO-K1) cells into which a stable vector containing the EP1 cDNA has previously been transfected. Cells are cultured in suitable flasks containing culture medium such as DMEM:F-12 supplemented with 10% v/v foetal calf serum, 2 mM L-glutamine, 0.25 mg/ml geneticin, 10 μg/ml puromycin and 10 μM indomethacin.
Cells are detached from the culture flasks by incubation in calcium and magnesium free phosphate buffered saline containing 1 mM disodium ethylenediaminetetraacetic acid (Na2EDTA) and 10 μM indomethacin for 5 min. The cells are isolated by centrifugation at 250×g for 5 mins and suspended in an ice cold buffer such as 50 mM Tris, 1 mM Na2EDTA, 140 mM NaCl, 10 μM indomethacin (pH 7.4). The cells are homogenised using a Polytron tissue disrupter (2×10 s burst at full setting), centrifuged at 48,000×g for 20 mins and the pellet containing the membrane fraction is washed (optional) three times by suspension and centrifugation at 48,000×g for 20 mins. The final membrane pellet is suspended in an assay buffer such as 10 mM 2-[N-morpholino]ethanesulphonic acid, 1 mM Na2EDTA, 10 mM MgCl2 (pH 6). Aliquots are frozen at −80° C. until required.
For the binding assay the cell membranes, competing compounds and [^3H]-PGE2 (3 nM final assay concentration) are incubated in a final volume of 100 μl for 30 min at 30° C. All reagents are prepared in assay buffer. Reactions are terminated by rapid vacuum filtration over GF/B filters using a Brandell cell harvester. The filters are washed with ice cold assay buffer, dried and the radioactivity retained on the filters is measured by liquid scintillation counting in Packard TopCount scintillation counter.
The data are analysed using non linear curve fitting techniques to determine the concentration of compound producing 50% inhibition of specific binding (IC50).

Assay [3] has as its system rat model of chronic constriction injury. Particulars: Anesthesia and Analgesia 2001, 93, 1012-7; cited from earlier work.
Assay [4] relates to rodent model of post-operative pain. Particulars: Anesthesia and Analgesia 2001, 92, 233-238; cited from earlier work.

SMILES strings stand for the structures. Some results are limits rather than exact numbers.

For the molecule `CC(C)Cc1cn(-c2nc(C(=O)Nc3c(F)cccc3F)cs2)c2cc(Cl)ccc12` [Example 33, 2-[6-Chloro-3-isobutyl-1H-indol-1-yl]-N-(2,6-difluorophenyl)-1,3-thiazole-4-carboxamide], the Ki was over 3160 nM on human EP3 receptor and at most 100 nM on human EP1 receptor [1]. On human EP1 receptor [2], this molecule had an IC50 of at most 100 nM.

Consider `Cc1cc(Cl)ccc1S(=O)(=O)NC[C@H]1C2CCC(CC2)[C@@H]1/C=C\CCCC(=O)O` [ONO-8711], for which the hyperalgesia and allodynia entry in assay [3] is “reduces hyperalgesia and allodynia”. Besides, in assay [4], the mechanical hyperalgesia result is on record as “inhibits mechanical hyperalgesia”.
